Literature values, collected in patent publication US20060204588A1, “Formulations of a nanoparticulate finasteride, dutasteride or tamsulosin hydrochloride, and mixtures thereof” (Elan Pharma International Limited, priority 2005, published 2006).

Solubility in alcohol (alcohol) | Solubility in chloroform (chloroform) | Solubility in lower alcohol solvents (lower alcohol solvents) | Solubility in water | Solubility in ethanol (in words) (ethanol) | Solubility in ether (ether) | Solubility in glacial acetic acid (glacial acetic acid) | Solubility in methanol (in words) (methanol) | SMILES
soluble | freely soluble | freely soluble | practically insoluble | – | – | – | – | CC(C)(C)NC(=O)[C@H]1CC[C@H]2[C@@H]3CC[C@H]4NC(=O)C=C[C@]4(C)[C@H]3CC[C@]12C [Finasteride, (5alpha,17beta)-N-(1,1-dimethylethyl)-3-oxo-4-azaandrost-1-ene-17-carboxamide]
– | – | – | sparingly soluble | slightly soluble | practically insoluble | slightly soluble | sparingly soluble | CCOc1ccccc1OCCNC(C)Cc1ccc(OC)c(S(N)(=O)=O)c1.Cl (single isomer, unassigned; (-)) [Tamsulosin hydrochloride]
– | – | – | insoluble | – | – | – | – | C[C@]12C=CC(=O)N[C@@H]1CC[C@@H]1[C@@H]2CC[C@]2(C)[C@@H](C(=O)Nc3cc(C(F)(F)F)ccc3C(F)(F)F)CC[C@@H]12 [Dutasteride, (5α, 17β)-(2,5 bis-(trifluoromethyl)phenyl)-3-oxo-4-azaandrost-1-ene-17-carboxamide]
